{"source": "patent CN102488699A", "about": "“芍药苷在制备防治肺纤维化药物中的应用” (China Pharmaceutical University, priority 2011, dated 2012)", "key": {"[1]": {"tested_on": "smooth muscle actin (α-SMA) [平滑肌肌动蛋白(α-SMA)]", "experiment": "Effect on α-SMA expression in lung tissue of pulmonary fibrosis mice, Western blot (Fig. 4)", "format": "in vivo, mouse", "conditions": "intragastric, once daily, day 21"}, "[2]": {"tested_on": "pulmonary fibrosis mice [肺纤维化小鼠]", "experiment": "Effect on survival rate of mice with bleomycin-induced pulmonary fibrosis", "format": "in vivo, mouse", "conditions": "intragastric, once daily from day 1, model group 50.0%; for survival rate: day 21 after bleomycin (5 mg/kg intratracheal)"}, "[3]": {"tested_on": "lipopolysaccharide-induced acute lung injury in mice [脂多糖引起的小鼠急性肺损伤]", "conditions": "intraperitoneal injection, Inflamm Res 2011,60(10):981-990; cited from earlier work"}, "[4]": {"tested_on": "bleomycin model mice [博来霉素模型小鼠]", "experiment": "Effect on degree of alveolitis and pulmonary fibrosis in bleomycin model mice (Table 1)", "format": "in vivo, mouse", "conditions": "intragastric, once daily, day 21, n=3"}, "[5]": {"tested_on": "lung tissue of pulmonary fibrosis mice [肺纤维化小鼠肺组织]", "experiment": "Effect on lung tissue lesions of pulmonary fibrosis mice, HE staining (Fig. 1)", "format": "in vivo, mouse", "conditions": "intragastric, once daily, day 21, vs model group"}, "[6]": {"tested_on": "hydroxyproline in lung tissue of pulmonary fibrosis mice [肺纤维化小鼠肺组织中羟脯氨酸]", "experiment": "Effect on hydroxyproline content in lung tissue of pulmonary fibrosis mice (Fig. 3)", "format": "in vivo, mouse"}, "[7]": {"tested_on": "TGF-β1 protein [TGF-β1蛋白]", "experiment": "Effect on TGF-β1 protein expression in lung tissue of pulmonary fibrosis mice, Western blot (Fig. 5)", "format": "in vivo, mouse", "conditions": "intragastric, once daily, day 21"}, "[8]": {"tested_on": "lung tissue of pulmonary fibrosis mice [肺纤维化小鼠肺组织]", "experiment": "Effect on collagen deposition in lung tissue of pulmonary fibrosis mice, Masson staining (Fig. 2)", "format": "in vivo, mouse", "conditions": "intragastric, once daily, day 21, vs model group"}}, "data": [{"molecule": "C[C@@]12C[C@@]3(O)O[C@@H](O1)[C@]1(COC(=O)c4ccccc4)[C@H]3C[C@@]12O[C@@H]1O[C@H](CO)[C@@H](O)[C@H](O)[C@H]1O", "note": "[芍药苷, Paeoniflorin]", "values": [{"measurement": "α-SMA content in lung tissue", "setting": "[1]; 100 mg/kg", "value": "显著降低"}, {"measurement": "survival rate", "setting": "[2]; 50 mg/kg", "value": 87.5, "unit": "%"}, {"measurement": "survival rate", "setting": "[2]; 100 mg/kg", "value": 75.0, "unit": "%"}, {"measurement": "protective effect on acute lung injury", "setting": "[3]", "value": "具有明显的保护作用"}, {"measurement": "alveolar inflammation", "setting": "[4]; 100 mg/kg", "value": "抑制肺泡炎症"}, {"measurement": "degree of pulmonary fibrosis", "setting": "[4]; 100 mg/kg", "value": "显著减低肺纤维化程度"}, {"measurement": "degree of alveolitis, HE staining", "setting": "[5]; 100 mg/kg", "value": "肺泡炎程度明显减轻"}, {"measurement": "lung tissue lesions, HE staining", "setting": "[5]; 100 mg/kg", "value": "肺组织结构较完整清晰,少量炎性细胞浸润及成纤维细胞增生,病变程度较模型组轻"}, {"measurement": "inhibition of collagen synthesis (in words)", "setting": "[6]; 50, 100 mg/kg, intragastric, once daily, day 21", "value": "剂量依赖性抑制胶原的合成"}, {"measurement": "inhibition at 50 mg/kg", "setting": "[6]; Mus musculus, po, 504 h, 50 mg/kg, intragastric, once daily, day 21, read-out: inhibition rate of hydroxyproline content in lung tissue", "value": 20.6, "unit": "%"}, {"measurement": "inhibition at 100 mg/kg", "setting": "[6]; Mus musculus, po, 504 h, 100 mg/kg, intragastric, once daily, day 21, read-out: inhibition rate of hydroxyproline content in lung tissue", "value": 31.4, "unit": "%"}, {"measurement": "TGF-β1 expression in lung tissue", "setting": "[7]; 100 mg/kg", "value": "显著降低"}, {"measurement": "collagen deposition and pulmonary fibrosis, Masson staining", "setting": "[8]; 100 mg/kg", "value": "肺组织结构较完整清晰,肺泡间隔轻度增厚,胶原沉积减少,肺纤维化程度明显减轻"}]}, {"molecule": "CC(=O)OCC(=O)[C@@]1(O)CC[C@H]2[C@@H]3CCC4=CC(=O)C=C[C@]4(C)[C@H]3C(=O)C[C@@]21C", "note": "[泼尼松, 醋酸泼尼松, reference compound]", "values": [{"measurement": "α-SMA content in lung tissue", "setting": "[1]; 6 mg/kg", "value": "显著降低"}, {"measurement": "survival rate (in words)", "setting": "[2]; 6 mg/kg, day 21 after bleomycin", "value": "与模型组相近"}, {"measurement": "alveolar inflammation", "setting": "[4]; 6 mg/kg", "value": "抑制肺泡炎症"}, {"measurement": "degree of pulmonary fibrosis", "setting": "[4]; 6 mg/kg", "value": "显著减低肺纤维化程度"}, {"measurement": "degree of alveolitis, HE staining", "setting": "[5]; 6 mg/kg", "value": "肺泡炎程度明显减轻"}, {"measurement": "lung tissue lesions, HE staining", "setting": "[5]; 6 mg/kg", "value": "肺组织结构较完整清晰,少量炎性细胞浸润及成纤维细胞增生,病变程度较模型组轻"}, {"measurement": "inhibition at 6 mg/kg", "setting": "[6]; Mus musculus, po, 504 h, read-out: inhibition rate of hydroxyproline content in lung tissue", "value": 31.2, "unit": "%"}, {"measurement": "TGF-β1 expression in lung tissue", "setting": "[7]; 6 mg/kg", "value": "显著降低"}, {"measurement": "collagen deposition and pulmonary fibrosis, Masson staining", "setting": "[8]; 6 mg/kg", "value": "肺组织结构较完整清晰,肺泡间隔轻度增厚,胶原沉积减少,肺纤维化程度明显减轻"}]}]}
